# Measured values as given in patent US11324768B2, “Applications of triacetyl-3-hydroxyl phenyl adenosine in treating vascular inflammations or improving vascular endothelium functions” (priority 2016, dated 2022).
# Columns and labels:
# Type in all cases: in vivo
# [1] = tested on: ApoE−/− mice; assay: Plaque area in ApoE−/− mice (oil red O staining of aorta and aortic root); details: for plaque area, Overall length of aorta: in % (unit assumed)
# Protocol: After 1 week of adaptive feeding, the animals were randomly divided into 7 groups according to body weight: normal control group, model control group A769662 (30 mg/kg) administration group, metformin (260 mg/kg) administration group, IMM-H007 low, medium, and high administration groups (50, 100, 200 mg/kg), 8 in each group, and were given a high-fat diet (78.6% basal diet, 10% lard, 1.0% cholesterol, 10% egg yolk powder, and 0.4% bile salt), and simultaneously administered intragastrically at a dose of 0.1 ml/10 g body weight, […] model.
# The aortic root was stained with oil red O and the overall length of the aorta was stained with oil red O. The pathological images were analyzed by Photoshop, Image 1, and Image-Pro Plus softwares. The pathological grading data were statistically analyzed using Chi-square test.
# [2] = tested on: mesenteric arterioles; assay: Microvascular endothelial function in Ob/Ob obese mice (mesenteric arterioles, Ach / SNP relaxation)
# Protocol: (§1) PSS and KPSS solutions were configured according to the instructions and used at the same time of the day. The PSS solution was taken out before the start of the experiment and pre-oxygenated for about 20 min. The ApoE−/− mice, which were fed with high-fat and simultaneously administered for 10 weeks, were anesthetized with pentobarbital sodium. The mice were supine and fixed. The abdominal cavity was opened along the median line. The mesenteric vascular bed was isolated and placed in the pre-oxygenated 20-minute PSS buffer. Under a stereomicroscope, a third-order mesenteric artery with a length of about 3 mm was carefully isolated. Firstly, the blood vessel was fixed to a P1 glass cannula and the coil was tightened. Note: the proximal end should be connected to the P1 end, and the P2 end vessel should be fixed and the coil should be tightened. The Chamber was placed on a objective table of the microscope and the data connection between Chamber and Interface was checked. The bath cover was covered and the oxygen was introduced, to exhaust air in the pipeline. The blood vessel image was found under the microscope and then the microscope was turned to camera mode. (The knob on the side of the eyepiece was rotated to graph.) MyoVIEW software was opened. The Camera window Capture was clicked to display the blood vessel image. The equilibration of blood vessels slowly rose from 10 mmHg to 60 mmHg, and each step was 300 s. After the equilibration procedure was completed, the solution in the bath was drained. Blood vessels were stimulated (10 ml) for 2 min using a 37° C. pre-heated KPSS solution, and changes in vasoconstriction were observed, and the blood vessels were then eluted using the PSS solution to baseline. The blood vessels were equilibrated at 60 mmHg 37° C. for 45 minutes, during which time the fluid was replaced every 20 minutes. The experiment was started: observing the vasodilatory response induced by 10^−10 to 10^−5 M Ach after pre-contraction with 2 μM phenylephrine, to evaluate the effect of the drugs on the vascular endothelial function. At the end of the experiment, the fresh 37° C. pre-heated PSS buffer was replaced for equilibration for 30 min, and the 10^−10M to 10^−3 M sodium nitroprusside were given to induce vasodilatory response after pre-contraction with 2 μM phenylephrine, to evaluate the effect of the drugs on vascular smooth muscle function. LD1 was the diameter of blood vessel after relaxation by administration of different concentrations of ACh or sodium nitroprusside, LD2 was the diameter of blood vessels after pre-contraction with phenylephrine, and LD3 represented the maximum diastolic diameter of blood vessel without any stimulant.
# (§2) The relaxation response to Ach and sodium nitroprusside after pre-contraction with phenylephrine was expressed as the percentage increase in the vascular diameter: % Relaxation=(LD1−LD2)/(LD3−LD2)×100.
# […] The changes of food intake and body weight were recorded, and routine biochemical indicators such as blood lipids and blood glucose, etc. were measured. After 9 weeks, 3 animals were taken from each group and the mesenteric arterioles were taken for measurement of vascular endothelial function in the same manner as in Example 2.
# [3] = tested on: third-order mesenteric artery; assay: Mesenteric microvascular endothelial function in ApoE−/− mice (pressure myography, Ach / SNP relaxation)
# Protocol: After 1 week of adaptive feeding, the animals were randomly divided into 7 groups according to body weight: normal control group, model control group A769662 (30 mg/kg) administration group, metformin (260 mg/kg) administration group, IMM-H007 low, medium, and high administration groups (50, 100, 200 mg/kg), 8 in each group, and were given a high-fat diet (78.6% basal diet, 10% lard, 1.0% cholesterol, 10% egg yolk powder, and 0.4% bile salt), and simultaneously administered intragastrically at a dose of 0.1 ml/10 g body weight, and were continuously administered and fed for 8 weeks to establish an atherosclerosis model.
# as §1, §2
structure (smiles),measurement,setting,value
"CC(=O)OCC1OC(n2cnc3c(Nc4cccc(O)c4)ncnc32)C(OC(C)=O)C1OC(C)=O (stereo not shown) [IMM-H007, 2′,3,′ 5′-triacetyl-N^6(3-hydroxyphenyl)adenosine]","plaque area, Frozen section of root of aorta %",[1]; 50 mg/kg,3.66 ± 2.65 %
same,"plaque area, Overall length of aorta",[1]; 50 mg/kg,6.18 ± 3.57
same,"plaque area, Frozen section of root of aorta %",[1]; 100 mg/kg,2.36 ± 0.43 %
same,"plaque area, Overall length of aorta",[1]; 100 mg/kg,3.93 ± 2.40
same,"plaque area, Frozen section of root of aorta %",[1]; 200 mg/kg,2.97 ± 0.92 %
same,"plaque area, Overall length of aorta",[1]; 200 mg/kg,3.67 ± 1.69
same,"lipid accumulation at the plaque site, section staining of the root of aorta",[1]; high-fat diet for 10 weeks,a decrease
same,plaque accumulation in the arch of aorta and overall length of aorta,[1]; high-fat diet for 10 weeks,significantly reduce
same,microvascular endothelial function,"[2]; 400 mg/kg, 9 weeks",improve
same,acetylcholine endothelium-dependent relaxation of microvascular,"[2]; 400 mg/kg, 1 × 10^−5 M Ach",93.6 ± 1.1 %
same,acetylcholine endothelium-dependent relaxation of microvascular,"[2]; 400 mg/kg, 1 × 10^−6 M Ach",82.1 ± 9.3 %
same,acetylcholine endothelium-dependent relaxation of microvascular,"[2]; 400 mg/kg, 1 × 10^−7 M Ach",71.7 ± 13.5 %
same,acetylcholine endothelium-dependent relaxation of microvascular,"[2]; 400 mg/kg, 1 × 10^−8 M Ach",57.6 ± 15.8 %
same,acetylcholine endothelium-dependent relaxation of microvascular,"[2]; 400 mg/kg, 1 × 10^−9 M Ach",32.3 ± 18.9%
same,acetylcholine endothelium-dependent relaxation of microvascular,"[2]; 400 mg/kg, 1 × 10^−10 M Ach",0.96 ± 0.85%
same,sodium nitroprusside endothelium-independent relaxation of microvascular,[2]; 1 × 10^−3 M SNP,95.0 ± 3.8%
same,sodium nitroprusside endothelium-independent relaxation of microvascular,[2]; 1 × 10^−4 M SNP,94.3 ± 2.3%
same,sodium nitroprusside endothelium-independent relaxation of microvascular,[2]; 1 × 10^−5 M SNP,91.4 ± 2.5%
same,sodium nitroprusside endothelium-independent relaxation of microvascular,[2]; 1 × 10^−6 M SNP,80.8 ± 6.9%
same,sodium nitroprusside endothelium-independent relaxation of microvascular,[2]; 1 × 10^−7 M SNP,68.3 ± 5.1%
same,sodium nitroprusside endothelium-independent relaxation of microvascular,[2]; 1 × 10^−8 M SNP,58.9 ± 3.2%
same,sodium nitroprusside endothelium-independent relaxation of microvascular,[2]; 1 × 10^−9 M SNP,43.5 ± 4.1%
same,sodium nitroprusside endothelium-independent relaxation of microvascular,[2]; 1 × 10^−10 M SNP,16.9 ± 6.3%
same,sodium nitroprusside endothelium-independent relaxation of microvascular,"[3]; 50 mg/kg, 1 × 10^−3 M SNP",96.5 ± 6.3%
same,sodium nitroprusside endothelium-independent relaxation of microvascular,"[3]; 50 mg/kg, 1 × 10^−4 M SNP",80.3 ± 12.1%
same,acetylcholine-induced endothelium-dependent relaxation of microvascular,"[3]; 50 mg/kg, 1 × 10^−5 M Ach",95.0 ± 4.4 %
same,sodium nitroprusside endothelium-independent relaxation of microvascular,"[3]; 50 mg/kg, 1 × 10^−5 M SNP",74.5 ± 12.8%
same,acetylcholine-induced endothelium-dependent relaxation of microvascular,"[3]; 50 mg/kg, 1 × 10^−6 M Ach",87.3 ± 5.0 %
same,sodium nitroprusside endothelium-independent relaxation of microvascular,"[3]; 50 mg/kg, 1 × 10^−6 M SNP",66.4 ± 11.6%
same,acetylcholine-induced endothelium-dependent relaxation of microvascular,"[3]; 50 mg/kg, 1 × 10^−7 M Ach",48.7 ± 12.8%
same,sodium nitroprusside endothelium-independent relaxation of microvascular,"[3]; 50 mg/kg, 1 × 10^−7 M SNP",60.9 ± 8.5%
same,acetylcholine-induced endothelium-dependent relaxation of microvascular,"[3]; 50 mg/kg, 1 × 10^−8 M Ach",29.3 ± 21.8%
same,sodium nitroprusside endothelium-independent relaxation of microvascular,"[3]; 50 mg/kg, 1 × 10^−8 M SNP",52.9 ± 14.2%
same,acetylcholine-induced endothelium-dependent relaxation of microvascular,"[3]; 50 mg/kg, 1 × 10^−9 M Ach",12.9 ± 12.6%
same,sodium nitroprusside endothelium-independent relaxation of microvascular,"[3]; 50 mg/kg, 1 × 10^−9 M SNP",43.9 ± 18.2%
same,acetylcholine-induced endothelium-dependent relaxation of microvascular,"[3]; 50 mg/kg, 1 × 10^−10 M Ach",5.0 ± 5.1%
same,sodium nitroprusside endothelium-independent relaxation of microvascular,"[3]; 50 mg/kg, 1 × 10^−10 M SNP",19.9 ± 10.1%
same,microvascular endothelial dysfunction caused by high fat,"[3]; 50 mg/kg, compared with the model control group",significantly improve
same,sodium nitroprusside endothelium-independent relaxation of microvascular,"[3]; 100 mg/kg, 1 × 10^−3 M SNP",96.5 ± 3.6%
same,sodium nitroprusside endothelium-independent relaxation of microvascular,"[3]; 100 mg/kg, 1 × 10^−4 M SNP",87.5 ± 10.9%
same,acetylcholine-induced endothelium-dependent relaxation of microvascular,"[3]; 100 mg/kg, 1 × 10^−5 M Ach",93.9 ± 12.9 %
same,sodium nitroprusside endothelium-independent relaxation of microvascular,"[3]; 100 mg/kg, 1 × 10^−5 M SNP",78.4 ± 13.0%
same,acetylcholine-induced endothelium-dependent relaxation of microvascular,"[3]; 100 mg/kg, 1 × 10^−6 M Ach",82.9 ± 8.5 %
same,sodium nitroprusside endothelium-independent relaxation of microvascular,"[3]; 100 mg/kg, 1 × 10^−6 M SNP",64.6 ± 12.2%
same,acetylcholine-induced endothelium-dependent relaxation of microvascular,"[3]; 100 mg/kg, 1 × 10^−7 M Ach",43.1 ± 21.8%
same,sodium nitroprusside endothelium-independent relaxation of microvascular,"[3]; 100 mg/kg, 1 × 10^−7 M SNP",51.5 ± 17.9%
same,acetylcholine-induced endothelium-dependent relaxation of microvascular,"[3]; 100 mg/kg, 1 × 10^−8 M Ach",18.6 ± 17.2%
same,sodium nitroprusside endothelium-independent relaxation of microvascular,"[3]; 100 mg/kg, 1 × 10^−8 M SNP",44.9 ± 21.9%
same,acetylcholine-induced endothelium-dependent relaxation of microvascular,"[3]; 100 mg/kg, 1 × 10^−9 M Ach",10.2 ± 12.0%
same,sodium nitroprusside endothelium-independent relaxation of microvascular,"[3]; 100 mg/kg, 1 × 10^−9 M SNP",33.9 ± 23.5%
same,acetylcholine-induced endothelium-dependent relaxation of microvascular,"[3]; 100 mg/kg, 1 × 10^−10 M Ach",2.37 ± 3.4%
same,sodium nitroprusside endothelium-independent relaxation of microvascular,"[3]; 100 mg/kg, 1 × 10^−10 M SNP",11.9 ± 13.5%
same,acetylcholine-induced endothelium-dependent relaxation response,"[3]; 100 mg/kg, compared with the model control group",significantly improve
same,sodium nitroprusside endothelium-independent relaxation of microvascular,"[3]; 200 mg/kg, 1 × 10^−3 M SNP",96.9 ± 2.9%
same,sodium nitroprusside endothelium-independent relaxation of microvascular,"[3]; 200 mg/kg, 1 × 10^−4 M SNP",91.3 ± 6.2%
same,acetylcholine-induced endothelium-dependent relaxation of microvascular,"[3]; 200 mg/kg, 1 × 10^−5 M Ach",96.9 ± 14.2 %
same,sodium nitroprusside endothelium-independent relaxation of microvascular,"[3]; 200 mg/kg, 1 × 10^−5 M SNP",75.3 ± 12.6%
same,acetylcholine-induced endothelium-dependent relaxation of microvascular,"[3]; 200 mg/kg, 1 × 10^−6 M Ach",73.3 ± 17.5 %
same,sodium nitroprusside endothelium-independent relaxation of microvascular,"[3]; 200 mg/kg, 1 × 10^−6 M SNP",58.0 ± 21.3%
same,acetylcholine-induced endothelium-dependent relaxation of microvascular,"[3]; 200 mg/kg, 1 × 10^−7 M Ach",42.2 ± 20.8%
same,sodium nitroprusside endothelium-independent relaxation of microvascular,"[3]; 200 mg/kg, 1 × 10^−7 M SNP",44.9 ± 27.8%
same,acetylcholine-induced endothelium-dependent relaxation of microvascular,"[3]; 200 mg/kg, 1 × 10^−8 M Ach",32.0 ± 20.1%
same,sodium nitroprusside endothelium-independent relaxation of microvascular,"[3]; 200 mg/kg, 1 × 10^−8 M SNP",39.4 ± 24.2%
same,acetylcholine-induced endothelium-dependent relaxation of microvascular,"[3]; 200 mg/kg, 1 × 10^−9 M Ach",18.8 ± 17.5%
same,sodium nitroprusside endothelium-independent relaxation of microvascular,"[3]; 200 mg/kg, 1 × 10^−9 M SNP",28.9 ± 29.5%
same,acetylcholine-induced endothelium-dependent relaxation of microvascular,"[3]; 200 mg/kg, 1 × 10^−10 M Ach",9.5 ± 12.0%
same,sodium nitroprusside endothelium-independent relaxation of microvascular,"[3]; 200 mg/kg, 1 × 10^−10 M SNP",19.4 ± 3.05%
